Target: JNK3 kinase (Homo sapiens, UniProt P53779)
Test: JNK3 SPA assay (phosphorylation of GST-c-Jun)
Format: biochemical
Details: 3.33 μM ATP, [γ-33P] ATP, GST-c-Jun substrate, 30 minutes at room temperature
Procedure: JNK1, JNK2, JNK3—SPA Assay
• 1. Compound is dissolved in DMSO to a convenient concentration and this is diluted in 10% DMSO to a five times concentrate of the desired starting concentration (frequently 1:100). • 2. 10 μl of 500 mM EDTA is added to alternative wells of the Opti-plate row, which will receive kinase reaction plus DMSO. This creates the negative control. • 3. For the JNK2 and JNK3 assay, compounds are prepared in six 2-fold dilutions with water and each concentration is tested in duplicate. For the JNK1 assay compounds are prepared in four 5-fold dilutions with water which are tested in triplicate. Controls are treated identically. • 4. 20 μl per well of each compound concentration is transferred to an Opti-plate, in duplicate. • 5. 30 μl (JNK2/3 SPA) or 50 μl (JNK1 SPA) of substrate solution (25 mM HEPES pH 7.5, 10 mM magnesium acetate with 3.33 μM ATP (JNK2/3) or 2 μM ATP (JNK1), approximately 7.5 kBq [γ-^33P] ATP, GST-c-Jun, in water) is added to each well. • 6. 50 μl (JNK2/3 SPA) or 30 μl (JNK1 SPA) of kinase solution (JNK in 25 mM HEPES pH 7.5, 10 mM Mg Acetate) is added to each well.
• 7. The plate is incubated for 30 minutes at room temperature. • 8. 100 μl of bead/stop solution is added to each well (5 mg/ml glutathione-PVT-SPA beads, 40 mM ATP in PBS). • 9. Plates are sealed and incubated for 30 minutes at room temperature, centrifuged for 10 minutes at 2500 g and counted. • 10. The IC50 values are calculated as the concentration of the compound being tested at which the phosphorylation of c-Jun is decreased to 50% of the control value.

JNK3 kinase, sequence (P53779 whole entry): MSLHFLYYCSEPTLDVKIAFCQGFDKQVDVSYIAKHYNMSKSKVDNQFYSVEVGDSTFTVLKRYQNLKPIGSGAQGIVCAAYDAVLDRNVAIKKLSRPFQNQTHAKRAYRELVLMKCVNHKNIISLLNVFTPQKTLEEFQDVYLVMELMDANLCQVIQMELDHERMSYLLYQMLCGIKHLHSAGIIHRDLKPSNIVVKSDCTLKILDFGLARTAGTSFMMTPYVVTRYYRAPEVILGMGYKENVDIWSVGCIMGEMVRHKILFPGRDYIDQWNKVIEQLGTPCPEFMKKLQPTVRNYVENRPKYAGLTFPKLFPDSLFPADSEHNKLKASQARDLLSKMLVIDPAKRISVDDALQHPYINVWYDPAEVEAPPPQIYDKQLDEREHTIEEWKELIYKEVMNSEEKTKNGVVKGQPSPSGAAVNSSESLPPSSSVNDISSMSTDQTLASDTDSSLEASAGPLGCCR

Row | Structure (SMILES) | IC50 [nM]
1 | CCCNC(=O)C#Cc1c[nH]c2ncc(-c3ccccc3Oc3ccccc3)cc12 | < 500
2 | C#Cc1c[nH]c2ncc(-c3ccc(N(C)C)cc3)cc12 | < 500
3 | N#Cc1c[nH]c2ncc(-c3ccccc3F)cc12 | < 500
4 | CN(C)c1ccc(-c2cnc3[nH]cc(C#N)c3c2)cc1 | < 500
